Results published in ChEMBL document CHEMBL1201862, “PubChem BioAssay data set” (2004).
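Step 1: Grow cells in 96-well plates. Step 2: Expose to compound for 48 hours at 5 concentrations. Step 3: Interpolate endpoints linearly; if unreached, use highest concentration. GI50 marks 50% less growth.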 Activity calls are given as the source filed them. No stated cut-off is given here; in the data, active = GI50 up to about 1.1 µM and inactive = higher.

Assays:
Experiment in all cases: inhibition of tumour cell growth, NCI panel, 48 h
A498 = system: A498
SK-OV-3 = system: SK-OV-3
UO-31 = system: UO-31
CCRF-CEM = system: CCRF-CEM
SR = system: SR
786-0 = system: 786-0
SF-295 = system: SF-295
SK-MEL-5 = system: SK-MEL-5
RPMI-8226 = system: RPMI-8226
MOLT-4 = system: MOLT-4
KM-20L2 = system: KM-20L2
SW-620 = system: SW-620
SNB-75 = system: SNB-75
A549 = system: A549
SF-539 = system: SF-539
UACC-257 = system: UACC-257
KM12 = system: KM12
MCF7 = system: MCF7
MDA-N = system: MDA-N
DLD-1 = system: DLD-1

SMILES | GI50 (A498) | GI50 (SK-OV-3) | GI50 (UO-31) | GI50 (CCRF-CEM) | GI50 (SR) | GI50 (786-0) | GI50 (SF-295) | GI50 (SK-MEL-5) | GI50 (RPMI-8226) | GI50 (MOLT-4) | GI50 (KM-20L2) | GI50 (SW-620) | GI50 (SNB-75) | GI50 (A549) | GI50 (SF-539) | GI50 (UACC-257) | GI50 (KM12) | GI50 (MCF7) | GI50 (MDA-N) | GI50 (DLD-1)
CCOC(=O)Cc1c(Cc2[nH]c(C(=O)OCc3ccccc3)c(CC(=O)OCC)c2CC(=O)OCC)[nH]c(C(=O)OCc2ccccc2)c1CC(=O)OCC | > 100 µM (inactive) | > 100 µM (inactive) | 67.8 µM (inactive) | > 100 µM (inactive) | > 100 µM (inactive) | > 100 µM (inactive) | > 100 µM (inactive) | > 100 µM (inactive) | > 100 µM (inactive) | > 100 µM (inactive) | > 100 µM (inactive) | > 100 µM (inactive) | > 100 µM (inactive) | > 100 µM (inactive) | > 100 µM (inactive) | – | – | – | – | –
CC1(C)C(=O)CCC(=O)C(C)(C)C2=CC=C(O2)C(C)(C)C(=O)CCC(=O)C(C)(C)C2=CC=C1O2 | > 100 µM (inactive) | > 100 µM (inactive) | – | > 100 µM (inactive) | > 100 µM (inactive) | > 100 µM (inactive) | > 100 µM (inactive) | – | – | > 100 µM (inactive) | > 100 µM (inactive) | > 100 µM (inactive) | – | > 100 µM (inactive) | – | > 100 µM (inactive) | > 100 µM (inactive) | – | – | –
C/C(=N\NC(=S)N1CCN(c2ccccn2)CC1)c1nccs1 | 1.88 µM (inactive) | 1.61 µM (inactive) | 0.516 µM (active) | 0.01 µM (active) | – | 0.305 µM (active) | 0.822 µM (active) | 0.219 µM (active) | 0.01 µM (active) | < 0.0225 µM (active) | < 0.0294 µM (active) | 0.279 µM (active) | 2.82 µM (inactive) | 0.908 µM (active) | 0.524 µM (active) | 0.214 µM (active) | 0.485 µM (active) | 0.00665 µM (active) | 0.431 µM (active) | –
CC(C)C(Br)CC/C(CBr)=C(\Cl)CCl (centres undefined) | 18.6 µM (inactive) | 2.94 µM (inactive) | 6.71 µM (inactive) | 0.135 µM (active) | 0.598 µM (active) | 1.81 µM (inactive) | 15.1 µM (inactive) | 1.79 µM (inactive) | 2 µM (inactive) | 0.589 µM (active) | – | 1.82 µM (inactive) | 5.19 µM (inactive) | 16.3 µM (inactive) | 3.59 µM (inactive) | 3.03 µM (inactive) | 5.61 µM (inactive) | 6.15 µM (inactive) | 1.85 µM (inactive) | –
COC(=O)C1(NC(=O)C(N)CC(=O)O)C(C)C1C (centres undefined) | > 100 µM (inactive) | > 100 µM (inactive) | > 100 µM (inactive) | > 100 µM (inactive) | > 100 µM (inactive) | > 100 µM (inactive) | > 100 µM (inactive) | > 100 µM (inactive) | > 100 µM (inactive) | > 100 µM (inactive) | – | > 100 µM (inactive) | > 100 µM (inactive) | > 100 µM (inactive) | > 100 µM (inactive) | > 100 µM (inactive) | > 100 µM (inactive) | > 100 µM (inactive) | > 100 µM (inactive) | –
O=C(O)C1=C(O)C(C(=O)O)C23CCCCCCCCCCC12C(C(=O)O)C(O)=C3C(=O)O (centres undefined) | – | > 100 µM (inactive) | > 100 µM (inactive) | > 100 µM (inactive) | > 100 µM (inactive) | > 100 µM (inactive) | > 100 µM (inactive) | > 100 µM (inactive) | > 100 µM (inactive) | > 100 µM (inactive) | – | > 100 µM (inactive) | – | > 100 µM (inactive) | > 100 µM (inactive) | > 100 µM (inactive) | > 100 µM (inactive) | – | – | > 100 µM (inactive)
CC1(S)CC2C(CC1Sc1ccccc1)C2(C)C (centres undefined) | – | > 100 µM (inactive) | > 100 µM (inactive) | > 100 µM (inactive) | – | > 100 µM (inactive) | > 100 µM (inactive) | 8.67 µM (inactive) | > 100 µM (inactive) | > 100 µM (inactive) | – | – | > 100 µM (inactive) | > 100 µM (inactive) | > 100 µM (inactive) | > 100 µM (inactive) | > 100 µM (inactive) | – | – | > 100 µM (inactive)
Cc1cc2c3c(c1)CCCN3CCC2 | > 10 µM (inactive) | > 10 µM (inactive) | > 10 µM (inactive) | > 10 µM (inactive) | > 10 µM (inactive) | > 10 µM (inactive) | > 10 µM (inactive) | > 10 µM (inactive) | > 10 µM (inactive) | > 10 µM (inactive) | – | > 10 µM (inactive) | > 10 µM (inactive) | > 10 µM (inactive) | > 10 µM (inactive) | > 10 µM (inactive) | > 10 µM (inactive) | > 10 µM (inactive) | > 10 µM (inactive) | –
CC1=C2C(=O)OCC23C=COC3(C)O1 (centres undefined) | 43.3 µM (inactive) | 46 µM (inactive) | 30.8 µM (inactive) | 33.5 µM (inactive) | 8.38 µM (inactive) | 35.6 µM (inactive) | 41.4 µM (inactive) | 18 µM (inactive) | 32.5 µM (inactive) | 21.4 µM (inactive) | – | 26.2 µM (inactive) | 24.8 µM (inactive) | 66.7 µM (inactive) | 21.2 µM (inactive) | 32.7 µM (inactive) | 26.9 µM (inactive) | 36.2 µM (inactive) | 29 µM (inactive) | –
COc1c(O)c(OC)c2oc(-c3ccc(O)c(O)c3)c(OC)c(=O)c2c1O | 31.6 µM (inactive) | 15.9 µM (inactive) | 28.1 µM (inactive) | 23.9 µM (inactive) | 28.7 µM (inactive) | 15 µM (inactive) | 39.3 µM (inactive) | 11.8 µM (inactive) | 31.8 µM (inactive) | 28.4 µM (inactive) | – | 36.1 µM (inactive) | 3.62 µM (inactive) | 35.6 µM (inactive) | 14.6 µM (inactive) | 24 µM (inactive) | 48.3 µM (inactive) | 4.1 µM (inactive) | 37.3 µM (inactive) | –
c1ccc2c(c1)[nH]c1c3ccccc3sc21 | > 100 µM (inactive) | > 100 µM (inactive) | > 100 µM (inactive) | > 100 µM (inactive) | 23 µM (inactive) | > 100 µM (inactive) | 38.1 µM (inactive) | > 100 µM (inactive) | > 100 µM (inactive) | > 100 µM (inactive) | – | > 100 µM (inactive) | 8.41 µM (inactive) | 77.4 µM (inactive) | > 100 µM (inactive) | 36.5 µM (inactive) | > 100 µM (inactive) | 24.9 µM (inactive) | > 100 µM (inactive) | –
COC(=O)C1=C(C)N(NC(=O)c2ccccc2)C(C)(O)C12CCOC2=O (centres undefined) | > 100 µM (inactive) | > 100 µM (inactive) | > 100 µM (inactive) | > 100 µM (inactive) | – | 0.195 µM (active) | > 100 µM (inactive) | – | > 100 µM (inactive) | > 100 µM (inactive) | > 100 µM (inactive) | > 100 µM (inactive) | – | > 100 µM (inactive) | > 100 µM (inactive) | > 100 µM (inactive) | > 100 µM (inactive) | – | – | > 100 µM (inactive)
COc1c(-c2nc3ccc(N4CCN(C)CC4)cc3[nH]2)cc(OC)c2[nH]c(COC(C)=O)nc12 | > 100 µM (inactive) | 63.7 µM (inactive) | 42.3 µM (inactive) | 29.2 µM (inactive) | 27.8 µM (inactive) | 36.6 µM (inactive) | 71.8 µM (inactive) | 94.6 µM (inactive) | 34.7 µM (inactive) | 45 µM (inactive) | – | 40.2 µM (inactive) | 9.4 µM (inactive) | 62.1 µM (inactive) | 36.6 µM (inactive) | 53.5 µM (inactive) | 31.3 µM (inactive) | 38.7 µM (inactive) | 40.4 µM (inactive) | –
COC(=O)/C=C1/OC(c2ccccc2)=C(Cl)C1=O | 29.4 µM (inactive) | 31.6 µM (inactive) | 20.9 µM (inactive) | 5.58 µM (inactive) | 4.72 µM (inactive) | 18.3 µM (inactive) | 27.7 µM (inactive) | 14.9 µM (inactive) | 7.33 µM (inactive) | 5.32 µM (inactive) | – | 20.5 µM (inactive) | 20.1 µM (inactive) | 26.4 µM (inactive) | 19.8 µM (inactive) | 24.9 µM (inactive) | 21 µM (inactive) | 16.7 µM (inactive) | 20.3 µM (inactive) | –
N#CC1=C(N)N(/N=C/c2ccco2)C(c2ccco2)C1(C#N)C#N (centres undefined) | 16 µM (inactive) | 33.7 µM (inactive) | 18.6 µM (inactive) | 4.76 µM (inactive) | 16 µM (inactive) | 17.2 µM (inactive) | 28.4 µM (inactive) | 15.3 µM (inactive) | 20.8 µM (inactive) | 11.9 µM (inactive) | – | 11.2 µM (inactive) | 16.8 µM (inactive) | 19.6 µM (inactive) | 22.1 µM (inactive) | 16.3 µM (inactive) | 15.1 µM (inactive) | 20.5 µM (inactive) | 18.4 µM (inactive) | –
Oc1cc(-c2ccccc2Cl)nc2cc3c(cc12)OCO3 | 0.116 µM (active) | 0.17 µM (active) | 0.224 µM (active) | 0.0422 µM (active) | 0.0562 µM (active) | 0.32 µM (active) | 0.107 µM (active) | 0.0435 µM (active) | 0.101 µM (active) | 0.123 µM (active) | – | 0.0698 µM (active) | 30.7 µM (inactive) | 0.156 µM (active) | 0.103 µM (active) | 0.443 µM (active) | 0.0486 µM (active) | 0.0518 µM (active) | 0.0158 µM (active) | –
